Data from PubChem BioAssay (NCI).
Several values for one entry are separate records, joined by “and”; a condition that tells them apart may be missing. Identical values can stand only once.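 Grown in 96-well plates, cells were treated for 48 hours with each compound at five concentrations. Insufficient inhibition: endpoint recorded as highest concentration tested. GI50 marks 50% less growth. Definition used: TGI = concentration required for complete inhibition of growth.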

What was measured:
Assay in all cases: DTP human tumour cell line panel, 48 h
NCI-H522 lung = system: NCI-H522 lung
HCC-2998 colon = system: HCC-2998 colon
NCI/ADR-RES ovarian = system: NCI/ADR-RES ovarian
HT29 colon = system: HT29 colon
SF-539 CNS = system: SF-539 CNS
NCI-H460 lung = system: NCI-H460 lung
PC-3 prostate = system: PC-3 prostate
KM12 colon = system: KM12 colon
SN12C renal = system: SN12C renal
UACC-257 melanoma = system: UACC-257 melanoma
SNB-75 CNS = system: SNB-75 CNS
SF-295 CNS = system: SF-295 CNS
SF-268 CNS = system: SF-268 CNS
COLO 205 colon = system: COLO 205 colon
SR leukemia = system: SR leukemia
ACHN renal = system: ACHN renal
A549 NSCLC = system: A549 NSCLC
NCI-H23 lung = system: NCI-H23 lung
HS 578T breast = system: HS 578T breast
MALME-3M melanoma = system: MALME-3M melanoma
U251 CNS = system: U251 CNS
HCT-116 colon = system: HCT-116 colon
MDA-N = system: MDA-N
CCRF-CEM leukemia = system: CCRF-CEM leukemia
HOP-92 NSCLC = system: HOP-92 NSCLC
SK-MEL-5 melanoma = system: SK-MEL-5 melanoma
A498 renal = system: A498 renal
HOP-62 NSCLC = system: HOP-62 NSCLC
LOX IMVI melanoma = system: LOX IMVI melanoma
K-562 leukemia = system: K-562 leukemia
SK-MEL-2 melanoma = system: SK-MEL-2 melanoma
HCT-15 colon = system: HCT-15 colon
UO-31 renal = system: UO-31 renal
SK-MEL-28 melanoma = system: SK-MEL-28 melanoma
DU-145 prostate = system: DU-145 prostate
MCF7 breast = system: MCF7 breast
MDA-MB-231 breast = system: MDA-MB-231 breast
OVCAR-5 ovarian = system: OVCAR-5 ovarian
RPMI-8226 leukemia = system: RPMI-8226 leukemia
TK-10 renal = system: TK-10 renal
M14 melanoma = system: M14 melanoma
786-0 renal = system: 786-0 renal
UACC-62 melanoma = system: UACC-62 melanoma
OVCAR-4 ovarian = system: OVCAR-4 ovarian
OVCAR-8 ovarian = system: OVCAR-8 ovarian
T-47D breast = system: T-47D breast
RXF 393 renal = system: RXF 393 renal
SW-620 colon = system: SW-620 colon
EKVX NSCLC = system: EKVX NSCLC
SNB-19 CNS = system: SNB-19 CNS
MDA-MB-435 = system: MDA-MB-435
BT-549 breast = system: BT-549 breast
NCI-H226 lung = system: NCI-H226 lung
MOLT-4 leukemia = system: MOLT-4 leukemia
OVCAR-3 ovarian = system: OVCAR-3 ovarian
CAKI-1 renal = system: CAKI-1 renal
SK-OV-3 ovarian = system: SK-OV-3 ovarian
IGROV1 ovarian = system: IGROV1 ovarian
HL-60(TB) leukemia = system: HL-60(TB) leukemia

O=c1cc(/C=C/c2ccc(O)c(O)c2)cc(/C=C/c2ccc(O)c(O)c2)o1
GI50 (NCI-H522 lung): 1450 nM
TGI (HCC-2998 colon): 19.3 µM
GI50 (NCI/ADR-RES ovarian): 12 µM
TGI (NCI/ADR-RES ovarian): 50 µM and 52.3 µM
GI50 (HT29 colon): 21.5 µM
TGI (HT29 colon): 23.7 µM and 56.8 µM
GI50 (SF-539 CNS): 3 µM
TGI (SF-539 CNS): 17.9 µM and 10.7 µM
GI50 (NCI-H460 lung): 7.14 µM
TGI (NCI-H460 lung): 50 µM and 21.6 µM
GI50 (PC-3 prostate): 11 µM
TGI (PC-3 prostate): 19.9 µM and 27.7 µM
GI50 (KM12 colon): 5 µM
TGI (KM12 colon): 16 µM and 22.7 µM
GI50 (SN12C renal): 6.06 µM
TGI (SN12C renal): 25.2 µM and 23.7 µM
GI50 (UACC-257 melanoma): 9.98 µM
TGI (UACC-257 melanoma): 29.4 µM and 27.5 µM
GI50 (SNB-75 CNS): 4.3 µM
TGI (SNB-75 CNS): 18.5 µM and 15.5 µM
GI50 (SF-295 CNS): 10.5 µM
TGI (SF-295 CNS): 19.8 µM and 22.2 µM
GI50 (SF-268 CNS): 4.17 µM
TGI (SF-268 CNS): 16.2 µM and 16.5 µM
GI50 (COLO 205 colon): 19.1 µM
TGI (COLO 205 colon): 24.6 µM and 34.4 µM
GI50 (SR leukemia): 1990 nM
TGI (SR leukemia): 14.2 µM and 6.05 µM
GI50 (ACHN renal): 4.01 µM
TGI (ACHN renal): 18.8 µM and 14.5 µM
GI50 (A549 NSCLC): 5.48 µM
TGI (A549 NSCLC): 50 µM and 18.9 µM
GI50 (NCI-H23 lung): 3.49 µM
TGI (NCI-H23 lung): 41.9 µM and 20.8 µM
GI50 (HS 578T breast): 3.96 µM
TGI (HS 578T breast): 50 µM and 34 µM
GI50 (MALME-3M melanoma): 2670 nM
TGI (MALME-3M melanoma): 22.2 µM and 19.1 µM
GI50 (U251 CNS): 3.61 µM
TGI (U251 CNS): 14.1 µM and 12.8 µM
GI50 (HCT-116 colon): 4.17 µM
TGI (HCT-116 colon): 15.6 µM and 15.3 µM
GI50 (MDA-N): 4.72 µM
TGI (MDA-N): 50 µM and 17.1 µM
GI50 (CCRF-CEM leukemia): 2530 nM
TGI (CCRF-CEM leukemia): 27.1 µM and 4.86 µM
GI50 (HOP-92 NSCLC): 5.16 µM
TGI (HOP-92 NSCLC): 47.6 µM and 17.3 µM
GI50 (SK-MEL-5 melanoma): 4.75 µM
TGI (SK-MEL-5 melanoma): 18.1 µM and 19 µM
TGI (A498 renal): 23.4 µM
TGI (HOP-62 NSCLC): 24.8 µM and 22.7 µM
GI50 (LOX IMVI melanoma): 5.19 µM
TGI (LOX IMVI melanoma): 50 µM and 19.4 µM
TGI (K-562 leukemia): 8.35 µM
TGI (SK-MEL-2 melanoma): 22.7 µM and 34.5 µM
GI50 (HCT-15 colon): 4.47 µM
TGI (HCT-15 colon): 24.1 µM and 18.1 µM
TGI (UO-31 renal): 14.6 µM
TGI (SK-MEL-28 melanoma): 50 µM
GI50 (DU-145 prostate): 5.29 µM
TGI (DU-145 prostate): 20.2 µM and 22.1 µM
TGI (MCF7 breast): 18.8 µM
GI50 (MDA-MB-231 breast): 13.3 µM
TGI (MDA-MB-231 breast): 28.3 µM and 39.8 µM
GI50 (OVCAR-5 ovarian): 18.3 µM
TGI (OVCAR-5 ovarian): 24.2 µM and 42.2 µM
GI50 (RPMI-8226 leukemia): 2250 nM
TGI (RPMI-8226 leukemia): 14.9 µM and 6.7 µM
GI50 (TK-10 renal): 9.1 µM
TGI (TK-10 renal): 50 µM and 20.9 µM
GI50 (M14 melanoma): 8.94 µM
TGI (M14 melanoma): 21.6 µM and 20.8 µM
GI50 (786-0 renal): 5.85 µM
TGI (786-0 renal): 50 µM and 23.2 µM
GI50 (UACC-62 melanoma): 2500 nM
TGI (UACC-62 melanoma): 16.6 µM and 6.05 µM
GI50 (OVCAR-4 ovarian): 3.17 µM
TGI (OVCAR-4 ovarian): 43.5 µM and 13.8 µM
GI50 (OVCAR-8 ovarian): 5.5 µM
TGI (OVCAR-8 ovarian): 50 µM and 32 µM
GI50 (T-47D breast): 1950 nM
TGI (T-47D breast): 27.3 µM and 4.92 µM
GI50 (RXF 393 renal): 3.42 µM
TGI (RXF 393 renal): 18.9 µM and 9.11 µM
GI50 (SW-620 colon): 3.05 µM
TGI (SW-620 colon): 50 µM and 12.3 µM
TGI (EKVX NSCLC): 15 µM and 21.9 µM
GI50 (SNB-19 CNS): 5.8 µM
TGI (SNB-19 CNS): 15.7 µM and 18 µM
GI50 (MDA-MB-435): 3.15 µM
TGI (MDA-MB-435): 50 µM and 11.6 µM
GI50 (BT-549 breast): 4.59 µM
TGI (BT-549 breast): 38.1 µM and 16.8 µM
GI50 (NCI-H226 lung): 11 µM
TGI (NCI-H226 lung): 35 µM and 33.4 µM
TGI (MOLT-4 leukemia): 6.48 µM
GI50 (OVCAR-3 ovarian): 4.92 µM
TGI (OVCAR-3 ovarian): 15.2 µM and 22 µM
GI50 (CAKI-1 renal): 4.92 µM
TGI (CAKI-1 renal): 31.9 µM and 14.6 µM
GI50 (SK-OV-3 ovarian): 13.1 µM
TGI (SK-OV-3 ovarian): 24.1 µM and 25.8 µM
GI50 (IGROV1 ovarian): 5.24 µM
TGI (IGROV1 ovarian): 37.5 µM and 18.1 µM

COc1ccc(CNc2nc3ccccc3nc2C(=O)O)cc1OC
TGI (NCI-H522 lung): > 100 µM
TGI (HCC-2998 colon): > 100 µM
TGI (NCI/ADR-RES ovarian): > 100 µM
TGI (HT29 colon): > 100 µM
TGI (SF-539 CNS): > 100 µM
TGI (NCI-H460 lung): > 100 µM
TGI (PC-3 prostate): > 100 µM
TGI (HL-60(TB) leukemia): > 100 µM
TGI (KM12 colon): > 100 µM
TGI (SN12C renal): > 100 µM
TGI (UACC-257 melanoma): > 100 µM
TGI (SNB-75 CNS): > 100 µM
TGI (SF-295 CNS): > 100 µM
TGI (SF-268 CNS): > 100 µM
TGI (COLO 205 colon): > 100 µM
TGI (SR leukemia): > 100 µM
TGI (ACHN renal): > 100 µM
TGI (A549 NSCLC): > 100 µM
TGI (NCI-H23 lung): > 100 µM
TGI (HS 578T breast): > 100 µM
TGI (MALME-3M melanoma): > 100 µM
TGI (U251 CNS): > 100 µM
TGI (HCT-116 colon): > 100 µM
TGI (MDA-N): > 100 µM
TGI (CCRF-CEM leukemia): > 100 µM
TGI (HOP-92 NSCLC): > 100 µM
TGI (SK-MEL-5 melanoma): > 100 µM
TGI (A498 renal): > 100 µM
TGI (HOP-62 NSCLC): > 100 µM
TGI (LOX IMVI melanoma): > 100 µM
TGI (K-562 leukemia): > 100 µM
TGI (HCT-15 colon): > 100 µM
TGI (UO-31 renal): > 100 µM
TGI (SK-MEL-28 melanoma): > 100 µM
TGI (DU-145 prostate): > 100 µM
TGI (MCF7 breast): > 100 µM
TGI (MDA-MB-231 breast): > 100 µM
TGI (RPMI-8226 leukemia): > 100 µM
TGI (TK-10 renal): > 100 µM
TGI (786-0 renal): > 100 µM
TGI (UACC-62 melanoma): > 100 µM
TGI (OVCAR-4 ovarian): > 100 µM
TGI (OVCAR-8 ovarian): > 100 µM
TGI (T-47D breast): > 100 µM
TGI (RXF 393 renal): > 100 µM
TGI (SW-620 colon): > 100 µM
TGI (EKVX NSCLC): > 100 µM
TGI (MDA-MB-435): > 100 µM
TGI (BT-549 breast): > 100 µM
TGI (NCI-H226 lung): > 100 µM
TGI (MOLT-4 leukemia): > 100 µM
TGI (OVCAR-3 ovarian): > 100 µM
TGI (CAKI-1 renal): > 100 µM
TGI (SK-OV-3 ovarian): > 100 µM
TGI (IGROV1 ovarian): > 100 µM
